Measured values reported in US20100119458A1, “Compositions Containing Metal Oxide Particles and Their Use” (Spago Imaging AB, priority 2007, published 2010).

Test: MRI measurements of relaxation rates and relaxivities
Format: physicochemical
Source text: where ρ=spin density, TE=echo time and TR=repetition time. Contrast agents that are paramagnetic are used to improve the resolution in the images. They have effects on both T1 and T2 but some agents have predominant effects on either T1 or T2. […] Gadolinium (III+) has a predominant effect on T1 and therefore has been used a positive contrast agent (increased MR signal). Iron (III+) has a predominant effect on T2 and has therefore been used as a negative contrast agent (decreased MR signal). The relaxation rate (1/Ti, i=1,2 for hydrogen) observed is proportional to the concentration C of a contrast agent used, i.e.
1/Ti(observed)=1/Ti(inherent)+riC
where 1/Ti (observed) is the relaxation rate in the presence of the contrast agent, 1/Ti (inherent) is the inherent tissue relaxation rate, and the proportionality constant ri is called the relaxivity constant for the contrast agent concerned. See Engström et al (Magn Reson Mater Phy 19 (2006) 180-186 and WO 2006031190 (Uvdal et al) and references cited therein.
15 MRI measurements: See Engström et al., Magn Reson Mater Phy, 19 (2006) 180-186.

O=C([O-])CN(CCN(CC(=O)[O-])CC(=O)O)CCN(CC(=O)[O-])CC(=O)O.[Gd+3] [Gd^3+-DTPA]
1/T1 (1 mM) (relaxation rate at 1 mM): 0.005 ms^−1 | 1/T2 (relaxation rate, stated in words): lower values
